In one data set the target is TTR (Homo sapiens (Human), UniProt P02766). The data set can be described thus: biochemical. It counts as binding. Conditions: FITC-coupled TTR FP probe; read-out: TTR FP IC50. The procedure:
Compound binding to TTR was assessed in the fluorescence polarization assay. […] Each well contained 200 nM TTR and 100 nM FITC-diclofenac in the FP buffer (10 mM Tris-HCl pH 7.5, 150 mM NaCl, 0.01% CHAPS, 0.01% Prionex) along with test compounds. Nonspecific binding was determined in the presence of 500 μM unlabeled diclofenac (Sigma-Aldrich). Reactions with test compounds were incubated overnight at 4° C. and FP was measured on SpectramaxM5e plate reader (Molecular Devices).

The nature of data set [1]: Metabolic stability and clearance in rat liver microsomes. It counts as in vitro ADME. As to conditions: 30 minute incubation. The procedure:
The results of metabolic stability determinations for novel compounds and testosterone (positive control) were conducted in the presence of human, rat, mouse, and monkey liver microsomes. Values shown are percent of parent remaining after a 30 minute incubation. All measurements were done in duplicate. Assay results for testosterone were within an acceptable range.
Mixed-gender human liver microsomes (Lot #1710084), male Sprague-Dawley rat liver microsomes (Lot #1610290), male CD-1 mouse liver microsomes (Lot #1710069), and male Cynomolgous liver microsomes (Lot #1510193) were purchased from XenoTech. The reaction mixture, minus NADPH, was prepared as described below. The test article was added into the reaction mixture at a final concentration of 1 μM. The control compound, testosterone, was run simultaneously with the test article in a separate reaction. An aliquot of the reaction mixture (without cofactor) was equilibrated in a shaking water bath at 37° C. for 3 minutes. The reaction was initiated by the addition of cofactor, and the mixture was incubated in a shaking water bath at 37° C. Aliquots (100 μL) were withdrawn at 0, 10, 20, 30, and 60. […] Half-lives were calculated using GraphPad software, fitting to a single-phase exponential decay equation.
A general note: Liver microsomes are a subcellular fraction often used to study metabolism.

A further data set has as its target hERG (Homo sapiens (Human), UniProt Q12809). Kind of data set: CiPA hERG QPatch Assay. Format: cell-based. As to conditions: five-point concentration-response, n = 2.
A short description of data set [2]: Plasma protein binding, human plasma. Format: in vitro ADME. As to conditions: pH 7.4, read-out: % PPB, H (converted). The procedure: Plasma protein binding (PPB) for compounds determination for compound (±)-44 in PBS (pH 7.4) was conducted by Eurofins using equilibrium dialysis of plasma with HPLC-UV/Vis detection.
The peak areas of the test compound in the buffer and test samples were used to calculate percent binding and recovery according to the following formulas:
• Areap=Peak area of analyte in protein matrix • Areab=Peak area of analyte in buffer • Areac=Peak area of analyte in control sample

In another data set the target is serum RBP4 (Mus musculus (Mouse), UniProt Q00724). Kind of data set: Serum RBP4 after long-term oral dosing in Abca4−/−/Rdh8−/− mice. Conditions: 25 mg/kg daily in chow. It counts as in vivo. The procedure: FIG. 9. Effect of the long-term oral (±)-44 administration in Abca4^−/−/Rdh8^−/− mice on serum RBP4 levels. Serum RBP4 levels were measured in vehicle-treated Abca4^−/−/Rdh8^−/− mice (squares) and (±)-44-treated Abca4^−/−/Rdh8^−/− mice (triangles) at the indicated time points. […] Error bars show S.D. Each data point on the graph represents a serum RBP4 concentration from an individual animal.
Blood samples were collected from a tail vein. Whole blood was drawn into a centrifuge tube and was allowed to clot at room temperature for 30 minutes followed by centrifugation at 2000 g for 15 minutes at […] to collect serum. Aliquots of plasma samples collected in the mouse pharmacokinetic study were analyzed for the RBP4 concentration using the RBP4 (mouse/rat) dual ELISA kit (AdipoGen, San Diego, CA) following the manufacturer's instructions. In adi-hRBP4 transgenic mouse experiments, blood samples were collected from a tail vein. […] Mouse serum RBP4 (produced predominantly in the liver) was measured using the RBP4 (mouse/rat) dual ELISA kit (AdipoGen, San Diego, CA; catalog number AG-45A-0012YTP-KI01)
(±)-44 was formulated into a Picolab 5053 chow to ensure a daily dosing of 25 mg/kg of (±)-44. […] Following the 10 weeks of dosing, the eyecups of treated and untreated Abca4^−/−/Rdh8^−/− mice as well as the eyecups of the reference wild type mice were collected for the quantitative A2E analysis.

SMILES strings stand for the structures. A value given as a limit tells only on which side of the number the result lay.

Sequence of hERG (Q12809 whole entry): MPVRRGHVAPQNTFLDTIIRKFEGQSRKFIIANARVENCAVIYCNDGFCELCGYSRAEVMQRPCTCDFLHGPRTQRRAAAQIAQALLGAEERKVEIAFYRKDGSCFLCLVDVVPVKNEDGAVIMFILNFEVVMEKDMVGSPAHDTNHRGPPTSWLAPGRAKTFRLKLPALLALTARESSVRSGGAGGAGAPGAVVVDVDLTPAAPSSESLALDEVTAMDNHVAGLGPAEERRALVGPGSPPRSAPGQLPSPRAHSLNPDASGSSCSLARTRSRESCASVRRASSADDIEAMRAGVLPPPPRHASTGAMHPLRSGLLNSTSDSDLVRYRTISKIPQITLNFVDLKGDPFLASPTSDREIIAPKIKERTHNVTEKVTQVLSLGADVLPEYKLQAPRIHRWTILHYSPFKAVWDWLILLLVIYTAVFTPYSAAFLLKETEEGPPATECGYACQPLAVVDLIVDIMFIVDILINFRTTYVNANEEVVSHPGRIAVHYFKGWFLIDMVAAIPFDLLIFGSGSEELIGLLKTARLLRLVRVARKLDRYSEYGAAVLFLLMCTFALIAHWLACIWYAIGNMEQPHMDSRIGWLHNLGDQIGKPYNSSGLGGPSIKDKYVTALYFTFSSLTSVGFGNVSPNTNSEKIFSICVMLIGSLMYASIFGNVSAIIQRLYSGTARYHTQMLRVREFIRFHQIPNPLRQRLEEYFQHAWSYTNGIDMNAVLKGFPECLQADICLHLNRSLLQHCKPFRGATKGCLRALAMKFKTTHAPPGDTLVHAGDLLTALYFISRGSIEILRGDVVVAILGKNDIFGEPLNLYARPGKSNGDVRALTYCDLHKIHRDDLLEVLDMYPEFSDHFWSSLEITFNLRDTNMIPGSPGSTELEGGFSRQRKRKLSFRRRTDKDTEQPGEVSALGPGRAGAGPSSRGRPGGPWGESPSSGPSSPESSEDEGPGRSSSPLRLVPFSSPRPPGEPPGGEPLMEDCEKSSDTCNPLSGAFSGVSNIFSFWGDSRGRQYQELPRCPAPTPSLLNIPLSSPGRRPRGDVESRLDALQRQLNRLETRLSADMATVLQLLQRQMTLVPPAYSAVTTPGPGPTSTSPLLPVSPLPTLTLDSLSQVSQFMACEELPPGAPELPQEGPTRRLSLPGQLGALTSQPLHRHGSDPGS

For `Cc1cc(C(=O)O)nc(N2CCC(COc3ccccc3C(F)(F)F)C2)n1` (racemic) [Compound (±)-44, (±)-6-Methyl-2-(3-((2-(trifluoromethyl)phenoxy)methyl)pyrrolidin-1-yl)pyrimidine-4-carboxylic Acid], the IC50 was 2850 nM on TTR and greater than 30000 nM on hERG. Also, the “Liver Microsomal Stability (% remaining at 30 min), RLM” value in data set [1] came to 93%. Moreover, in data set [2], the fraction unbound was 0.002. The “serum RBP4 reduction compared to untreated Abca4−/−/Rdh8−/− mice” value at serum RBP4 (10 weeks) was 84%. Besides, the “serum RBP4 reduction compared with baseline” value at serum RBP4 (week 10, Abca4−/−/Rdh8−/− mice) was determined as 76%.

Usually IC50 stands for the midpoint of a concentration-inhibition curve.

(Values after patent publication US20230348415A1, “BISPECIFIC ANTAGONISTS OF RETINOL-BINDING PROTEIN 4 THAT STABILIZE TRANSTHYRETIN TETRAMERS, THEIR PREPARATION, AND USE IN THE TREATMENT OF COMMON AGE-RELATED COMORBIDITIES” (The Trustees of Columbia University in the City of New York, priority 2020, published 2023).)
